Experimental data reported in patent publication US20090018166A1, “New Pyridine Analogues X 161” (ASTRAZENECA AB, priority 2007, published 2009).

target: T1, P2Y12 receptor (Homo sapiens, UniProt Q9H244); test: Functional inhibition of 2-Me-S-ADP induced P2Y12 signalling (35S-GTPγS binding, membranes from P2Y12 transfected CHO-cells); format: biochemical; conditions: 35S-GTPγS, EC80 of 2-methyl-thio-adenosine diphosphate, P2Y12 CHO membranes; value given in each example; read-out: GTPγS(IC50 μM)
T1 construct: expressed in transfected cells; host or cells: CHO cells (membranes)
T1 sequence (Q9H244 whole entry): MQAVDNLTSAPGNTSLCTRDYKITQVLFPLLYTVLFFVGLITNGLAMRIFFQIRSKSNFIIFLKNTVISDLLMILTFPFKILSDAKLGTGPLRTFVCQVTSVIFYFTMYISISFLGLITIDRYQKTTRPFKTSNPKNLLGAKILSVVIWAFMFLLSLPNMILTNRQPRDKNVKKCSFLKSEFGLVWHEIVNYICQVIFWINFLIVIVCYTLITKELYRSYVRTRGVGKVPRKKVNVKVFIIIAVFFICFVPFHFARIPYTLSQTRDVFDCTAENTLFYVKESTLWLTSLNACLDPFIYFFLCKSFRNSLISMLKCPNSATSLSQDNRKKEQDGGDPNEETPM
Description: Functional inhibition of- the P2Y12 receptor can be measured by in vitro assays using cell membranes from P2Y12 transfected CHO-cells, the methodology is indicated below.
Functional inhibition of 2-Me-S-ADP induced P2Y12 signalling: 5 μg of membranes were diluted in 200 μl of 200 mM NaCl, 1 mM MgCl2, 50 mM HEPES (pH 7.4), 0.01% BSA, 30 μg/ml saponin and 10 μM GDP. To this was added an EC80 concentration of agonist (2-methyl-thio-adenosine diphosphate), the required concentration of test compound and 0.1 μCi ^35S-GTPγS. The reaction was allowed to proceed at 30° C. for 45 min. Samples were then transferred on to GF/B filters using a cell harvester and washed with wash buffer (50 mM Tris (pH 7.4), 5 mM MgCl2, 50 mM NaCl). Filters were then covered with scintilant and counted for the amount of ^35S-GTPγS retained by the filter. Maximum activity was that determined in the presence of the agonist and minimum activity in the absence of the agonist following subtraction of the value determined for non-specific activity. The effect of compounds at various concentrations was plotted according to the equation
y=A+((B−A)/(1+((C/x)̂D)))
and IC50 estimated where A is the bottom plateau of the curve i.e. the final minimum y value B is the top of the plateau of the curve i.e. the final maximum y value C is the x value at the middle of the curve. This represents the log EC50 value when A+B=100 D is the slope factor. x is the original known x values. Y is the original known y values.

Compound	IC50
1-{3-chloro-6-[(2-oxopyrrolidin-1-yl)methyl]-5-pentanoylpyridin-2-yl}-N-[(2,4-difluorobenzyl)sulfonyl]-N-methylpiperidine-4-carboxamide [Example 71]	0.903 µM
CC(=O)c1cc(C#N)c(N2CCC(C(=O)NS(=O)(=O)Cc3ccccc3)CC2)nc1CN1CCCC1=O [Example 1, 1-{5-Acetyl-3-cyano-6-[(2-oxopyrrolidin-1-yl)methyl]pyridin-2-yl}-N-(benzylsulfonyl)piperidine-4-carboxamide]	0.283 µM
CC(=O)c1cc(C#N)c(N2CCC(C(=O)NS(=O)(=O)Cc3ccccc3)CC2)nc1CN1CCCCC1=O [Example 3, 1-{5-Acetyl-3-cyano-6-[(2-oxopiperidin-1-yl)methyl]pyridin-2-yl}-N-(benzylsulfonyl)piperidine-4-carboxamide]	1.65 µM
N#Cc1cc(C(=O)C2CC2)c(CN2CCCC2=O)nc1N1CCC(C(=O)NS(=O)(=O)Cc2ccccc2)CC1 [Example 8, N-(benzylsulfonyl)-1-{3-cyano-5-(cyclopropylcarbonyl)-6-[(2-oxopyrrolidin-1-yl)methyl]pyridin-2-yl}piperidine-4-carboxamide]	0.032 µM
N#Cc1cc(C(=O)C2CC2)c(CN2CCCC2=O)nc1N1CCC(C(=O)NS(=O)(=O)CC2CCCC2)CC1 [Example 9, 1-{3-Cyano-5-(cyclopropylcarbonyl)-6-[(2-oxopyrrolidin-1-yl)methyl]pyridin-2-yl}-N-[(cyclopentylmethyl)sulfonyl]piperidine-4-carboxamide]	0.058 µM
CCC(=O)c1cc(C#N)c(N2CCC(C(=O)NS(=O)(=O)Cc3ccccc3)CC2)nc1CN1CCCC1=O [Example 10, N-(benzylsulfonyl)-1-{3-cyano-6-[(2-oxopyrrolidin-1-yl)methyl]-5-propionylpyridin-2-yl}piperidine-4-carboxamide]	0.098 µM
CCC(=O)c1cc(C#N)c(N2CCC(C(=O)NS(=O)(=O)Cc3ccc(C)cc3)CC2)nc1CN1CCCC1=O [Example 11, 1-{3-cyano-6-[(2-oxopyrrolidin-1-yl)methyl]-5-propionylpyridin-2-yl}-N-[(4-methylbenzyl)sulfonyl]piperidine-4-carboxamide]	0.037 µM
CCC(=O)c1cc(C#N)c(N2CCC(C(=O)NS(=O)(=O)CC3CCCC3)CC2)nc1CN1CCCC1=O [Example 12, 1-{3-Cyano-6-[(2-oxopyrrolidin-1-yl)methyl]-5-propionylpyridin-2-yl}-N-[(cyclopentylmethyl)sulfonyl]piperidine-4-carboxamide]	0.328 µM
CN(c1ccccc1)S(=O)(=O)NC(=O)C1CCN(c2nc(CN3CCCCC3=O)c(C(=O)C3CC3)cc2C#N)CC1 [Example 13, 1-{3-Cyano-5-(cyclopropylcarbonyl)-6-[(2-oxopiperidin-1-yl)methyl]pyridin-2-yl}-N-{[methyl(phenyl)amino]sulfonyl}piperidine-4-carboxamide]	0.153 µM
N#Cc1cc(C(=O)C2CC2)c(CN2CCCCC2=O)nc1N1CCC(C(=O)NS(=O)(=O)CC2CCCC2)CC1 [Example 14, 1-{3-Cyano-5-(cyclopropylcarbonyl)-6-[(2-oxopiperidin-1-yl)methyl]pyridin-2-yl}-N-[(cyclopentylmethyl)sulfonyl]piperidine-4-carboxamide]	0.461 µM
CC(C)C(=O)c1cc(C#N)c(N2CCC(C(=O)NS(=O)(=O)Cc3ccccc3)CC2)nc1CN1CCCC1=O [Example 15, N-(Benzylsulfonyl)-1-{3-cyano-5-isobutyryl-6-[(2-oxopyrrolidin-1-yl)methyl]pyridin-2-yl}piperidine-4-carboxamide]	0.106 µM
CC(C)C(=O)c1cc(C#N)c(N2CCC(C(=O)NS(=O)(=O)CC3CCCC3)CC2)nc1CN1CCCC1=O [Example 16, 1-{3-Cyano-5-isobutyryl-6-[(2-oxopyrrolidin-1-yl)methyl]pyridin-2-yl}-N-[(cyclopentylmethyl)sulfonyl]piperidine-4-carboxamide]	0.396 µM
CCCCC(=O)c1cc(C#N)c(N2CCC(C(=O)NS(=O)(=O)CC3CCCC3)CC2)nc1CN1CCCC1=O [Example 17, 1-{3-Cyano-6-[(2-oxopyrrolidin-1-yl)methyl]-5-pentanoylpyridin-2-yl}-N-[(cyclopentylmethyl)sulfonyl]piperidine-4-carboxamide]	0.029 µM

Now those with a lower IC50, led by results:

IC50	Compound
0.022 µM	CCCC(=O)c1cc(C#N)c(N2CCC(C(=O)NS(=O)(=O)Cc3ccccc3)CC2)nc1CN1CCCC1=O [Example 2, N-(Benzylsulfonyl)-1-{5-butyryl-3-cyano-6-[(2-oxopyrrolidin-1-yl)methyl]pyridin-2-yl}piperidine-4-carboxamide]
0.021 µM	CCCC(=O)c1cc(C#N)c(N2CCC(C(=O)NS(=O)(=O)Cc3ccc(C)cc3)CC2)nc1CN1CCCCC1=O [Example 4, 1-{5-Butyryl-3-cyano-6-[(2-oxopiperidin-1-yl)methyl]pyridin-2-yl}-N-[(4-methylbenzyl)sulfonyl]piperidine-4-carboxamide]
0.009 µM	CCCC(=O)c1cc(C#N)c(N2CCC(C(=O)NS(=O)(=O)Cc3ccc(C)cc3)CC2)nc1CN1CCCC1=O [Example 5, 1-{5-butyryl-3-cyano-6-[(2-oxopyrrolidin-1-yl)methyl]pyridin-2-yl}-N-[(4-methylbenzyl)sulfonyl]piperidine-4-carboxamide]
0.0099 µM	CCCC(=O)c1cc(C#N)c(N2CCC(C(=O)NS(=O)(=O)Cc3ccc(F)cc3F)CC2)nc1CN1CCCC1=O [Example 6, 1-{5-butyryl-3-cyano-6-[(2-oxopyrrolidin-1-yl)methyl]pyridin-2-yl}-N-[(2,4-difluorobenzyl)sulfonyl]piperidine-4-carboxamide]
0.028 µM	CCCC(=O)c1cc(C#N)c(N2CCC(C(=O)NS(=O)(=O)CC3CCCC3)CC2)nc1CN1CCCC1=O [Example 7, 1-{5-Butyryl-3-cyano-6-[(2-oxopyrrolidin-1-yl)methyl]pyridin-2-yl}-N-[(cyclopentylmethyl)sulfonyl]piperidine-4-carboxamide]
0.013 µM	CCCCC(=O)c1cc(C#N)c(N2CCC(C(=O)NS(=O)(=O)Cc3ccccc3)CC2)nc1CN1CCCC1=O [Example 18, N-(Benzylsulfonyl)-1-{3-cyano-6-[(2-oxopyrrolidin-1-yl)methyl]-5-pentanoylpyridin-2-yl}piperidine-4-carboxamide]
0.0086 µM	CCCCC(=O)c1cc(C#N)c(N2CCC(C(=O)NS(=O)(=O)Cc3ccc(C)cc3)CC2)nc1CN1CCCC1=O [Example 19, 1-{3-Cyano-6-[(2-oxopyrrolidin-1-yl)methyl]-5-pentanoylpyridin-2-yl}-N-[(4-methylbenzyl)sulfonyl]piperidine-4-carboxamide]
0.013 µM	CCCCC(=O)c1cc(C#N)c(N2CCC(C(=O)NS(=O)(=O)Cc3ccc(F)cc3F)CC2)nc1CN1CCCC1=O [Example 20, 1-{3-Cyano-6-[(2-oxopyrrolidin-1-yl)methyl]-5-pentanoylpyridin-2-yl}-N-[(2,4-difluorobenzyl)sulfonyl]piperidine-4-carboxamide]
0.023 µM	CCCCC(=O)c1cc(C#N)c(N2CCC(C(=O)NS(=O)(=O)N(C)c3ccc(F)cc3)CC2)nc1CN1CCCC1=O [Example 21, 1-{3-Cyano-6-[(2-oxopyrrolidin-1-yl)methyl]-5-pentanoylpyridin-2-yl}-N-{[(4-fluorophenyl)(methyl)amino]sulfonyl}piperidine-4-carboxamide]

same assay, conditions: functional inhibition of 2-Me-S-ADP induced P2Y12 signalling assay; EC80 of agonist; summary table in Pharmacological Data; read-out: IC50

IC50	Compound
0.28 µM	CCCC(=O)c1cc(C#N)c(N2CCC(C(=O)NS(=O)(=O)Cc3ccc(C)cc3)CC2)nc1CN1CCCCC1=O [Example 4, 1-{5-Butyryl-3-cyano-6-[(2-oxopiperidin-1-yl)methyl]pyridin-2-yl}-N-[(4-methylbenzyl)sulfonyl]piperidine-4-carboxamide]
0.13 µM	CCC(=O)c1cc(C#N)c(N2CCC(C(=O)NS(=O)(=O)CC3CCCC3)CC2)nc1CN1CCCC1=O [Example 12, 1-{3-Cyano-6-[(2-oxopyrrolidin-1-yl)methyl]-5-propionylpyridin-2-yl}-N-[(cyclopentylmethyl)sulfonyl]piperidine-4-carboxamide]
